SMILES strings stand for the structures. pEC50: −log10 of the molar value.

The target of this test is T1, human GPR119 (hGPR119) (Homo sapiens, UniProt Q8TDV5).
T1 construct: expressed in transfected cells
T1 sequence (Q8TDV5 1-335): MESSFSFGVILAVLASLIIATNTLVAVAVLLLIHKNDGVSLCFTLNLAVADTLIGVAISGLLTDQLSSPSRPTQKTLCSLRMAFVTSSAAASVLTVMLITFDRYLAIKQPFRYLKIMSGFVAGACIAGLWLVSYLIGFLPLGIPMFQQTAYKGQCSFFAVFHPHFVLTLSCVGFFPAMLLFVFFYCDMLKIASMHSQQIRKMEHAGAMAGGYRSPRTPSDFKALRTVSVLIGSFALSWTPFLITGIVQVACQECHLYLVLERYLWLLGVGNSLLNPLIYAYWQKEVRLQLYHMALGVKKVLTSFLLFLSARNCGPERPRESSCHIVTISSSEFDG
Put plainly: cAMP accumulation assay (cAMP Gs dynamic HTRF kit). Format: cell-based. The note with it: CHO-K1 cells stably expressing hGPR119, 4-parameter fit; for Emax: 1 h, % activity normalized to Max/Min controls; for pEC50: cAMP accumulation. The method, boiled down: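 CHO-K1 cells stably expressing hGPR119, used as assay-ready frozen stocks at ~10,000 cells/well, exposed to compound dose-response in stimulation buffer with Tween 80 for 60 min at 37° C. cAMP read by HTRF (665/620 nm ratio), normalised to Max/Min controls; EC50 and Max activity from 4-parameter fit.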

As to `CC(C)OC(=O)N1CCC2(CCC2CCOc2cc(F)c(CC(=O)N3CC(CNC[C@H](O)[C@@H](O)[C@H](O)[C@H](O)CO)C3)c(F)c2)CC1` (stereo partly drawn) [Example 141, isopropyl 3-[2-[3,5-difluoro-4-[2-oxo-2-[3-[[[(2S,3R,4R,5R)-2,3,4,5,6-pentahydroxyhexyl]amino]methyl]azetidin-1-yl]ethyl]phenoxy]ethyl]-7-azaspiro[3.5]nonane-7-carboxylate], the Emax (in general, the maximal effect, on the per cent scale that the assay sets) fell in the range of 50 to 100% and the pEC50 (usually −log10 of the EC50, conventionally taken in molar units) is 5.00 to 6.00.
`O=C(Cc1ccc(OCCCC2CC23CCN(c2ncc(Cl)cn2)CC3)cc1F)N1CC(CNC[C@H](O)[C@@H](O)[C@H](O)[C@H](O)CO)C1` (stereo partly drawn) [Example 142, 2-[4-[3-[6-(5-chloropyrimidin-2-yl)-6-azaspiro[2.5]octan-2-yl]propoxy]-2-fluoro-phenyl]-1-[3-[[[(2S,3R,4R,5R)-2,3,4,5,6-pentahydroxyhexyl]amino]methyl]azetidin-1-yl]ethanone] gave an Emax of 100 to 130% and a pEC50 of 6.00 to 7.00.
The matching figures for `O=C(Cc1c(F)cc(OCCCC2CC23CCN(c2ncc(Cl)cn2)CC3)cc1F)N1CC(CNC[C@H](O)[C@@H](O)[C@H](O)[C@H](O)CO)C1` (stereo partly drawn) [Example 143]: 100 to 130% and 6.00 to 7.00.
Taken in the same sequence, the figures for `O=C(Cc1ccc(OCCCC2CCC23CCN(c2ncc(Cl)cn2)CC3)cc1F)N1CC(CNC[C@H](O)[C@@H](O)[C@H](O)[C@H](O)CO)C1` (stereo partly drawn) [Example 144, 2-[4-[3-[7-(5-chloropyrimidin-2-yl)-7-azaspiro[3.5]nonan-3-yl]propoxy]-2-fluoro-phenyl]-1-[3-[[[(2S,3R,4R,5R)-2,3,4,5,6-pentahydroxyhexyl]amino]methyl]azetidin-1-yl]ethanone] were 100 to 130% and 5.00 to 6.00.
`CC(C)OC(=O)N1CCC2(CC1)CC2CCCOc1ccc(CC(=O)N2CC(CNC[C@H](O)[C@@H](O)[C@H](O)[C@H](O)CO)C2)c(F)c1` (stereo partly drawn) [Example 145, isopropyl 2-[3-[3-fluoro-4-[2-oxo-2-[3-[[[(2S,3R,4R,5R)-2,3,4,5,6-pentahydroxyhexyl]amino]methyl]azetidin-1-yl]ethyl]phenoxy]propyl]-6-azaspiro[2.5]octane-6-carboxylate] had an Emax of 50 to 100% and a negative-log EC50 (pEC50) of 5.00 to 6.00.
The matching figures for `CC(C)OC(=O)N1CCC2(CC1)CC2CCCOc1cc(F)c(CC(=O)N2CC(CNC[C@H](O)[C@@H](O)[C@H](O)[C@H](O)CO)C2)c(F)c1` (stereo partly drawn) [Example 146, isopropyl 2-[3-[3,5-difluoro-4-[2-oxo-2-[3-[[[(2S,3R,4R,5R)-2,3,4,5,6-pentahydroxyhexyl]amino]methyl]azetidin-1-yl]ethyl]phenoxy]propyl]-6-azaspiro[2.5]octane-6-carboxylate]: 100 to 130% and 6.00 to 7.00.
Taken in the same sequence, the figures for `O=C(Cc1ccc(OCCCC2CCN(c3ncc(Cl)cn3)CC2)cc1F)N1CC[C@@H](CNCC(CO)(CO)CO)C1` [Example 147, 2-[4-[3-[1-(5-chloropyrimidin-2-yl)-4-piperidyl]propoxy]-2-fluoro-phenyl]-1-[(3S)-3-[[[3-hydroxy-2,2-bis(hydroxymethyl)propyl]amino]methyl]pyrrolidin-1-yl]ethanone] were 100 to 130% and ≥ 7.00.
The matching figures for `O=C(Cc1ccc(OCCCC2CCN(c3ncc(Cl)cn3)CC2)cc1F)N1CC[C@@H](CNC(CO)(CO)CO)C1` [Example 148, 2-[4-[3-[1-(5-chloropyrimidin-2-yl)-4-piperidyl]propoxy]-2-fluoro-phenyl]-1-[(3S)-3-[[[2-hydroxy-1,1-bis(hydroxymethyl)ethyl]amino]methyl]pyrrolidin-1-yl]ethanone]: ≥ 130% and ≥ 7.00.
For `O=C(Cc1c(F)cc(OCCCC2CCN(c3ncc(Cl)cn3)CC2)cc1F)N1CC[C@@H](CNC(CO)(CO)CO)C1` [Example 149, 2-[4-[3-[1-(5-chloropyrimidin-2-yl)-4-piperidyl]propoxy]-2,6-difluoro-phenyl]-1-[(3S)-3-[[[2-hydroxy-1,1-bis(hydroxymethyl)ethyl]amino]methyl]pyrrolidin-1-yl]ethanone], the Emax was ≥ 130% and the pEC50 was ≥ 7.00.

The record behind these values is patent US20230061736A1, “GPR119 AGONISTS” (Kallyope, Inc., priority 2019, published 2023).
